For 9 molecules, CFU results are on record in PubChem BioAssay AID743163 (Broad Institute, 2013).

The assay has as its system Mycobacterium tuberculosis starved, CFU count by imaging. Description: Mycobacterium tuberculosis starved, CFU count by imaging at 64 µM (AID 743163). Particulars: stronger effect = lower value.

Calls of active or inactive are those of the source. The rule behind the calls is not given here.

As for `COc1ccc(CNC(=O)Nc2ncc([N+](=O)[O-])s2)cc1`, the CFU runs as follows: (CFU at 64 uM, at 64 µM) 204000 CFU; (at 10 µM) 2.15e+06 CFU.

With `c1ccc(-c2n[nH]c(-c3ccccn3)n2)nc1`, the CFU runs as follows: (CFU at 64 uM, at 64 µM) 1.91e+06 CFU; (at 10 µM) 6.09e+06 CFU.

`CCC(C)n1nnc2c(=O)oc3ccccc3c21` (stereo not drawn): the CFU runs as follows: (CFU at 64 uM, at 64 µM) 3.22e+06 CFU; (at 10 µM) 4.71e+06 CFU.

On to `Cn1c(NC(=O)c2ccccc2)nc2ccccc21`, for which the CFU by setting is: (CFU at 64 uM, at 64 µM) 0 CFU; (at 10 µM) 0 CFU.

As for `COC(=O)C(C)Oc1ccc2cc(-c3ccccc3)c(=O)oc2c1` (stereo not drawn), the CFU is, setting by setting: (CFU at 64 uM, at 64 µM) 4.57e+06 CFU; (at 10 µM) 3.2e+07 CFU (inactive).

For `CCOc1ccc(OC(=O)c2ccc3c(=O)n4c(nc3c2)CCC4)cc1`, the CFU runs as follows: (CFU at 64 uM, at 64 µM) 3.25e+07 CFU; (at 10 µM) 3.2e+07 CFU (inactive).

`CCOC(=O)c1cc(COc2c(Cl)cccc2Cl)on1`: the CFU is 1.11e+06 CFU (CFU at 64 uM, at 64 µM) and 3.08e+07 CFU (at 10 µM).

As for `CSc1nsc(SCc2ccc(C(=O)Nc3cccc(C)c3)cc2)n1`, the CFU reads like this: (CFU at 64 uM, at 64 µM) 12600 CFU; (at 10 µM) 1.1e+06 CFU.

Regarding `COc1ccc(CCNc2cc(-c3ccccc3)nc3ncnn23)cc1`, the CFU is, setting by setting: (CFU at 64 uM, at 64 µM) 2.5e+06 CFU; (at 10 µM) 2.65e+06 CFU.
